From patent US20250179059A1 (The Regents of the University of California, priority 2021, published 2025) come the findings set out here.

A word on the GI50: it is the concentration that inhibits growth by half. High values mean lower sensitivity of the cells, low ones greater sensitivity of the cells. What is called IC50 is the concentration that inhibits the measured activity by half.

Assay [1] deals with human SKM-1 acute myeloid leukemia cells. Kind of assay: SKM-1 antiproliferation cell-based assay (ATPlite). On the procedure:
The cell-based assay indirectly measures cell density (and therefore proliferation and/or survival) by detecting total ATP concentration in a homogeneous format. Briefly, human SKM-1 acute myeloid leukemia cells (Leibniz Institute DSMZ #ACC 547) proliferating in log phase are collected by centrifugation, re-suspended in culture media (RPMI 1640/15% FBS/100 U/mL penicillin/100 μg/mL streptomycin) and diluted to 34722 cells/mL in media after counting. Then 180 μL cells are plated per well into a 96-well tissue-culture treated, clear bottom plate (Coming #3603). A 96-well compound plate (Corning #3357) is then generated by serial dilution of compounds into DMSO over nine concentrations and adding separate negative (DMSO) and positive control (reference compound) wells. Each compound concentration is tested in triplicate. First, 1 μL from each well of the compound plate is added to 99 μL culture media in an intermediate plate and mixed by pipetting. Then 20 μL of the diluted compounds in media are added to the assay plate containing the cells. The assay plate is maintained for 4 days in a standard cell culture incubator. At the end of the incubation period, 100 μL ATPlite Istep (PerkinElmer) is added to the assay plate wells, and the resulting luminescence is detected using an Infinite M1000 or a Spark multimode plate reader (Tecan). Data analysis is performed in Prism (GraphPad Software). For curve fitting, a non-linear regression, variable slope equation is used to calculate cellular IC50s.
(In general: In ATP-based viability assays light output follows the ATP content of the culture.)

The target of assay [2] is T1, human BRD4 bromodomain II (Homo sapiens, UniProt O60885).
T1 construct: human BRD4 bromodomain II [based on Genbank NM_058243, residues 349-460]; host or cells: E. coli
In words: Bromodomain binding assay (AlphaScreen), BRD4 BDII. The settings on record: AlphaScreen assay, Table C2; read-out: BRD4 BDII IC50. The method in brief:
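Read-out is AlphaScreen signal (ex 680 nm, em 520-620 nm) from streptavidin donor beads on a biotinylated acetylated histone H4 (aa 1-21) peptide and nickel acceptor beads on the His6-tagged bromodomain. IC50 values come from curve fits of percentage peptide binding against compound concentration.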
In general terms: In Alpha technology, singlet oxygen from a donor bead excites a nearby acceptor bead.

[3] abbreviates: Homo sapiens, SKM-1, SKM-1 antiproliferation assay.

Consider `Cn1ccn(-c2ccc(-c3nc(F)cc(-c4cccc(N5CCN(C(C)(C)C)CC5)c4)c3N)cc2Cl)c1=O` [Example 1057, 1-(4-(3-amino-4-(3-(4-(tert-butyl)piperazin-1-yl)phenyl)-6-fluoropyridin-2-yl)-2-chlorophenyl)-3-methyl-1,3-dihydro-2H-imidazol-2-one], for which the GI50 in assay [1] (setting [3]) lay within 0.3 to 30 nM.
In turn, `Cn1ccn(-c2ccc(-c3cc(F)nc(-c4cccc(N5CCN(C(C)(C)C)CC5)c4)c3N)cc2Cl)c1=O` [Example 1056, 1-(4-(3-amino-2-(3-(4-(tert-butyl)piperazin-1-yl)phenyl)-6-fluoropyridin-4-yl)-2-chlorophenyl)-3-methyl-1,3-dihydro-2H-imidazol-2-one] had a GI50 in assay [1] (setting [3]) of 0.3 to 30 nM.
With `Cc1cc(-c2ccc(N3CCCC3=O)c(Cl)c2)c(O)c(-c2cccc(N3CCN(C(C)(C)C)CC3)c2)n1` [Example 1041, 1-(4-(2-(3-(4-(tert-butyl)piperazin-1-yl)phenyl)-3-hydroxy-6-methylpyridin-4-yl)-2-chlorophenyl)pyrrolidin-2-one], the GI50 in assay [1] (setting [3]) lay in the range of 30 to 300 nM.
On to `Cc1cc(-c2ccc(-n3ccn(C)c3=O)c(Cl)c2)c(O)c(-c2ccc(=O)n(C3CCN(C(C)C)CC3)c2)n1` [Example 1048, 4-(3-Chloro-4-(3-methyl-2-oxo-2,3-dihydro-1H-imidazol-1-yl)phenyl)-3-hydroxy-1′-(1-isopropylpiperidin-4-yl)-6-methyl-[2,3′-bipyridin]-6′(1′H)-one], for which the GI50 in assay [1] (setting [3]) lay in the range of 30 to 300 nM.
The compound `[2H]C([2H])([2H])n1ccn(-c2ccc(-c3cc(F)nc(-c4cccc(N5CCN(C(C)(C)C)CC5)c4)c3O)cc2Cl)c1=O` [Example 1047, 1-(4-(2-(3-(4-(tert-butyl)piperazin-1-yl)phenyl)-6-fluoro-3-hydroxypyridin-4-yl)-2-chlorophenyl)-3-(methyl-d3)-1,3-dihydro-2H-imidazol-2-one] registered a GI50 in assay [1] (setting [3]) of 0.3 to 30 nM.
`Cn1ccn(-c2ccc(-c3cc(F)nc(-c4cnc(O)c(N5CCN(C(C)(C)C)CC5)c4)c3O)cc2Cl)c1=O` [Example 1049, 1-(4-(5′-(4-(tert-butyl)piperazin-1-yl)-6-fluoro-3,6′-dihydroxy-[2,3′-bipyridin]-4-yl)-2-chlorophenyl)-3-methyl-1,3-dihydro-2H-imidazol-2-one] showed a concentration for 50% growth inhibition (GI50) in assay [1] (setting [3]) of 30 to 300 nM.
Regarding `Cc1ncc(-c2cc(F)cc(-c3ccc(-n4ccn(C)c4=O)c(Cl)c3)c2O)cc1N1CC2(CC2)[C@](C)(O)C1` [Example 874], the concentration for 50% growth inhibition (GI50) in assay [1] (SKM-1 antiproliferation assay) was 0.3 to 30 nM.
Compound `Cc1cc(-c2ccc(N3CCN(C)C3=O)c(Cl)c2)c(O)c(-c2cccc(N3CCN(C(C)(C)C)CC3)c2)n1` [Example 1046, 1-(4-(2-(3-(4-(tert-Butyl)piperazin-1-yl)phenyl)-3-hydroxy-6-methylpyridin-4-yl)-2-chlorophenyl)-3-methylimidazolidin-2-one] showed a GI50 in assay [1] (setting [3]) of 0.3 to 30 nM.
For the compound `CC1=CCN(c2ccc(-c3cc(C)nc(-c4cccc(N5CCN(C(C)(C)C)CC5)c4)c3O)cc2Cl)C1=O` [Example 1055, 1-(4-(2-(3-(4-(tert-butyl)piperazin-1-yl)phenyl)-3-hydroxy-6-methylpyridin-4-yl)-2-chlorophenyl)-3-methyl-1,5-dihydro-2H-pyrrol-2-one], in assay [1] (setting [3]), the GI50 was in the range of 0.3 to 30 nM.
The compound `COc1ncc(-c2nc(F)cc(-c3ccc(-n4ccn(C)c4=O)c(Cl)c3)c2O)cc1N1CCN(C(C)(C)C)CC1` [Example 1044, 1-(4-(5′-(4-(tert-Butyl)piperazin-1-yl)-6-fluoro-3-hydroxy-6′-methoxy-[2,3′-bipyridin]-4-yl)-2-chlorophenyl)-3-methyl-1H-imidazol-2(3H)-one] gave a GI50 in assay [1] (setting [3]) of 0.3 to 30 nM.
On the same count and under the same terms, then `Cn1ccn(-c2ccc(-c3cc(C=O)cc(-c4cccc(N5CCN(C(C)(C)C)CC5)c4)c3O)cc2Cl)c1=O` [Example 1042, 3″-(4-(tert-Butyl)piperazin-1-yl)-3-chloro-2′-hydroxy-4-(3-methyl-2-oxo-2,3-dihydro-1H-imidazol-1-yl)-[1,1′:3′,1″-terphenyl]-5′-carbaldehyde], with 300 to 3000 nM.
The same measure, in the same setting: then `CC(C)(C)N1CCN(c2cccc(-c3cc(F)cc(-c4ccc(-n5ccsc5=O)c(Cl)c4)c3O)c2)CC1` [Example 1052, 3-(3″-(4-(tert-butyl)piperazin-1-yl)-3-chloro-5′-fluoro-2′-hydroxy-[1,1′:3′,1″-terphenyl]-4-yl)thiazol-2(3H)-one], with 0.3 to 30 nM; and `Cn1ccn(-c2ccc(-c3cc(F)nc(-c4cccc(N5CCN(C(C)(C)C)CC5)c4)c3O)cc2F)c1=O` [Example 1054, 1-(4-{2-[3-(4-tert-Butyl-piperazin-1-yl)-phenyl]-6-fluoro-3-hydroxy-pyridin-4-yl}-2-fluoro-phenyl)-3-methyl-1,3-dihydro-imidazol-2-one], with 0.3 to 30 nM.
The same measure, in the same setting: for `CCc1ncc(-c2nc(F)cc(-c3ccc(-n4ccn(C)c4=O)c(Cl)c3)c2O)cc1N1CCN(C(C)(C)C)CC1` [Example 1059, 1-(4-(5′-(4-(tert-butyl)piperazin-1-yl)-6′-ethyl-6-fluoro-3-hydroxy-[2,3′-bipyridin]-4-yl)-2-chlorophenyl)-3-methyl-1,3-dihydro-2H-imidazol-2-one] the value was 0.3 to 30 nM; for `Cc1cc(-c2cc(F)nc(-c3cccc(N4CCN(C(C)(C)C)CC4)c3)c2O)ccc1-n1ccn(C)c1=O` [Example 1050, 1-(4-(2-(3-(4-(tert-butyl)piperazin-1-yl)phenyl)-6-fluoro-3-hydroxypyridin-4-yl)-2-methylphenyl)-3-methyl-1,3-dihydro-2H-imidazol-2-one], 0.3 to 30 nM.
In turn, `Cc1ncc(-c2nc(F)cc(-c3ccc(-n4ccn(C)c4=O)c(Cl)c3)c2O)cc1N1CCN(C(C)(C)C)CC1` [Example 1043, 1-(4-(5′-(4-(tert-Butyl)piperazin-1-yl)-6-fluoro-3-hydroxy-6′-methyl-[2,3′-bipyridin]-4-yl)-2-chlorophenyl)-3-methyl-1H-imidazol-2(3H)-one] registered a GI50 in assay [1] (setting [3]) of 30 to 300 nM.
The compound `CC(C)(C)N1CCN(c2cccc(-c3cc(F)cc(-c4ccc(N5CCCC5=O)c(Cl)c4)c3O)c2)CC1` [Example 1045, 1-(3″-(4-(tert-Butyl)piperazin-1-yl)-3-chloro-5′-fluoro-2′-hydroxy-[1,1′:3′,1″-terphenyl]-4-yl)pyrrolidin-2-one] showed a GI50 in assay [1] (setting [3]) of 30 to 300 nM.
Regarding `CC(=O)Nc1ccc(-c2cccc(-c3cc(N4CCNCC4)no3)c2O)cc1OC1CC2(COC2)C1` [Example 28, N-(3-(2-Oxaspiro[3.3]heptan-6-yloxy)-2′-hydroxy-3′-(3-(piperazin-1-yl)isoxazol-5-yl)-[1,1′-biphenyl]-4-yl)acetamide 2,2,2-trifluoroacetate], the IC50 in assay [2] is 10 to 100 nM.
As for `O=C1CCCN1c1c(F)cc(-c2cccc(-c3ccncc3)c2O)cc1F` [Example 207, 1-(3,5-difluoro-2′-hydroxy-3′-(pyridin-4-yl)-[1,1′-biphenyl]-4-yl)pyrrolidin-2-one], the IC50 in assay [2] is > 100 nM.
Consider `CC(=O)Nc1ccc(-c2cccc(-c3cccc(N4CCC5(CC4)CNC5)c3)c2O)cc1F` [Example 196, N-(3-fluoro-2′-hydroxy-3″-(2,7-diazaspiro[3.5]nonan-7-yl)-[1,1′:3′,1″-terphenyl]-4-yl)acetamide], for which the IC50 in assay [2] was 10 to 100 nM.
Turning to `CC(=O)Nc1ccc(-c2cccc(-c3cccc(N4CCNC[C@@H]4C)c3)c2O)cc1F` [Example 168, (S)-N-(3-fluoro-2′-hydroxy-3″-(2-methylpiperazin-1-yl)-[1,1′:3′,1″-terphenyl]-4-yl)acetamide], in assay [2], the IC50 was in the range of 10 to 100 nM.
